Laboratory results: patent publication US8188059B2, “Compounds and methods for modulating expression of GCGR” (Isis Pharmaceuticals, Inc., priority 2006, dated 2012)

Experiments:
Type in all cases: in vivo, mouse
GCGR mRNA = GCGR mRNA levels in liver of C57/BL6 mice, single i.p. dose (Example 4, Tables 35-41); settings: 48 h
Description: (§1) Eight-week old male C57/BL6 mice (Jackson Laboratory, Bar Harbor, Me.) were administered a single dose of GCGR oligonucleotide by intraperitoneal injection at a concentration of […]. Each dose group consisted of four animals. Shown in Table 31 are the sequences, motifs and conjugates of the GCGR antisense compounds used in this study. Bolded residues indicate 2′-O-methoxyethyl (2′-MOE) moieties. All compounds comprise phosphorothioate internucleoside linkages throughout and each cytosine is replaced with 5-methylcytosine. ISIS 386626, ISIS 386627 and ISIS 386628 further comprise a C16 conjugate group attached to the 2′-O position of the sugar via a diamide linkage (2′-OCH2C(═O)N(H)(CH2)4N(H)C(═O)—(CH2)15CH3). GCGR antisense compounds target published GCGR sequences, including Genbank® Accession No. BC031885.1 (SEQ ID NO: 7).
(§2) Mice were sacrificed 48 hours following injection to determine serum transaminase levels (Table 32); liver, white adipose tissue (WAT), spleen and kidney weight (Table 33); cholesterol, triglyceride and glucose levels (Table 34); GCGR mRNA levels (Tables 35-41); and full-length and total oligonucleotide concentration in liver and kidney (Table 42). Endpoints were assessed using methods described herein and well known to those of ordinary skill in the art. Data is included from a pre-treatment bleed (Pre-Bleed) and post-treatment bleed (Post-Bleed).
To determine whether the phenotypic changes shown above correlated with a decrease in GCGR mRNA, treated animals were evaluated for levels of target mRNA in liver by real time PCR according to methods described herein. Tables 35 to 41 show results from direct comparisons of the antisense compounds targeting GCGR nucleic acid for their effect on target expression. Results are expressed as percent of saline control.

[1] = Triglyceride, cholesterol and glucose levels, pre-bleed and post-bleed (Example 4, Table 34); design: TRIG Pre-Bleed / TRIG Post-Bleed / CHOL Pre-Bleed / CHOL Post-Bleed / Glucose Pre-Bleed / Glucose Post-Bleed: unit not given here; settings: C57/BL6 mice; for CHOL Pre-Bleed / Glucose Pre-Bleed / TRIG Pre-Bleed: pre-treatment bleed; for CHOL Post-Bleed / Glucose Post-Bleed / TRIG Post-Bleed: post-treatment bleed, 48 h
Description: as §1, §2

[2] = Total and full-length antisense compound concentrations in liver and kidney (Example 4, Table 42); settings: C57/BL6 mice; single i.p. dose; 48 h; dose not given
Description: as §1, §2
Treatment with the 2-10-2 MOE gapmers led to a significant dose-dependent decrease in GCGR mRNA expression. […] To determine whether the observed increase in efficiency with the short antisense compounds is due to an increase in antisense compound accumulation, full-length and total antisense compound concentration in the liver and kidney were determined.

[3] = ALT & AST levels, C57/BL6 mice (Example 4, Table 32); settings: for ALT Pre-Bleed / AST Pre-Bleed: pre-treatment bleed; for ALT Post-Bleed / AST Post-Bleed: 48 hours following injection
Description: as §1, §2

[4] = Organ weights: liver, white adipose tissue, spleen, kidney (Example 4, Table 33); settings: 48 h, C57/BL6 mice
Description: as §1, §2

For “386628 (antisense TGTCTTGCTGCTTT; chemistry not fully specified) [compound 386628]”, the “GCGR mRNA levels in liver” value (GCGR mRNA; 6.25 mg/kg single i.p., Table 38 comparison ISIS 148364 & ISIS 386628) was 77% of saline control, the “GCGR mRNA levels in liver” value (GCGR mRNA; 6.25 mg/kg single i.p., Table 41 comparison ISIS 386628 & ISIS 386594) was 97% of saline control and the “GCGR mRNA levels in liver” value (GCGR mRNA; 12.5 mg/kg single i.p., Table 38 comparison ISIS 148364 & ISIS 386628) was 53% of saline control. For the same substance, the “GCGR mRNA levels in liver” value (GCGR mRNA; 12.5 mg/kg single i.p., Table 41 comparison ISIS 386628 & ISIS 386594) was 38% of saline control, the “GCGR mRNA levels in liver” value (GCGR mRNA; 25 mg/kg single i.p., Table 38 comparison ISIS 148364 & ISIS 386628) was 18% of saline control and the “GCGR mRNA levels in liver” value (GCGR mRNA; 25 mg/kg single i.p., Table 41 comparison ISIS 386628 & ISIS 386594) was 13% of saline control. For the same substance, the “GCGR mRNA levels in liver” value (GCGR mRNA; 50 mg/kg single i.p., Table 38 comparison ISIS 148364 & ISIS 386628) was 2% of saline control, the “GCGR mRNA levels in liver” value (GCGR mRNA; 50 mg/kg single i.p., Table 41 comparison ISIS 386628 & ISIS 386594) was 4% of saline control and the “CHOL Pre-Bleed” value ([1]; 6.25 mg/kg group) was 83. For the same substance, the “Glucose Pre-Bleed” value ([1]; 6.25 mg/kg group) was 228, the “TRIG Pre-Bleed” value ([1]; 6.25 mg/kg group) was 117 and the “CHOL Post-Bleed” value ([1]; 6.25 mg/kg single i.p.) was 85. The “Glucose Post-Bleed” value ([1]; 6.25 mg/kg single i.p.) was 229, the “TRIG Post-Bleed” value ([1]; 6.25 mg/kg single i.p.) was 121 and the “CHOL Pre-Bleed” value ([1]; 12.5 mg/kg group) was 90. The “Glucose Pre-Bleed” value ([1]; 12.5 mg/kg group) was 231, the “TRIG Pre-Bleed” value ([1]; 12.5 mg/kg group) was 90 and the “CHOL Post-Bleed” value ([1]; 12.5 mg/kg single i.p.) was 94. The “Glucose Post-Bleed” value ([1]; 12.5 mg/kg single i.p.) was 240, the “TRIG Post-Bleed” value ([1]; 12.5 mg/kg single i.p.) was 123 and the “CHOL Pre-Bleed” value ([1]; 25 mg/kg group) was 84. For the same substance, the “Glucose Pre-Bleed” value ([1]; 25 mg/kg group) was 210, the “TRIG Pre-Bleed” value ([1]; 25 mg/kg group) was 102 and the “CHOL Post-Bleed” value ([1]; 25 mg/kg single i.p.) was 85. The “Glucose Post-Bleed” value ([1]; 25 mg/kg single i.p.) was 223, the “TRIG Post-Bleed” value ([1]; 25 mg/kg single i.p.) was 129 and the “CHOL Pre-Bleed” value ([1]; 50 mg/kg group) was 88. For the same substance, the “Glucose Pre-Bleed” value ([1]; 50 mg/kg group) was 209, the “TRIG Pre-Bleed” value ([1]; 50 mg/kg group) was 102 and the “CHOL Post-Bleed” value ([1]; 50 mg/kg single i.p.) was 95. For the same substance, the “Glucose Post-Bleed” value ([1]; 50 mg/kg single i.p.) was 232, the “TRIG Post-Bleed” value ([1]; 50 mg/kg single i.p.) was 98 and the “Full-length antisense compound concentration, Kidney” value [2] was 305 µg/g. For the same substance, the “Full-length antisense compound concentration, Liver” value [2] was 202 µg/g, the “Total antisense compound concentration, Kidney” value [2] was 496 µg/g and the “Total antisense compound concentration, Liver” value [2] was 286 µg/g. For the same substance, the “ALT Pre-Bleed” value ([3]; 6.25 mg/kg dose group) was 22 IU/L, the “AST Pre-Bleed” value ([3]; 6.25 mg/kg dose group) was 40 IU/L and the “ALT Pre-Bleed” value ([3]; 12.5 mg/kg dose group) was 28 IU/L. For the same substance, the “AST Pre-Bleed” value ([3]; 12.5 mg/kg dose group) was 42 IU/L, the “ALT Pre-Bleed” value ([3]; 25 mg/kg dose group) was 24 IU/L and the “AST Pre-Bleed” value ([3]; 25 mg/kg dose group) was 40 IU/L. The “ALT Pre-Bleed” value ([3]; 50 mg/kg dose group) was 28 IU/L, the “AST Pre-Bleed” value ([3]; 50 mg/kg dose group) was 44 IU/L and the “ALT Post-Bleed” value ([3]; single i.p. dose 6.25 mg/kg) was 29 IU/L. For the same substance, the “AST Post-Bleed” value ([3]; single i.p. dose 6.25 mg/kg) was 59 IU/L, the “ALT Post-Bleed” value ([3]; single i.p. dose 12.5 mg/kg) was 35 IU/L and the “AST Post-Bleed” value ([3]; single i.p. dose 12.5 mg/kg) was 75 IU/L. The “ALT Post-Bleed” value ([3]; single i.p. dose 25 mg/kg) was 32 IU/L, the “AST Post-Bleed” value ([3]; single i.p. dose 25 mg/kg) was 57 IU/L and the “ALT Post-Bleed” value ([3]; single i.p. dose 50 mg/kg) was 68 IU/L. The “AST Post-Bleed” value ([3]; single i.p. dose 50 mg/kg) was 76 IU/L, the “Organ weight: Kidney” value ([4]; 6.25 mg/kg single i.p.) was 102 % saline control and the “Organ weight: Liver” value ([4]; 6.25 mg/kg single i.p.) was 98 % saline control. For the same substance, the “Organ weight: Spleen” value ([4]; 6.25 mg/kg single i.p.) was 151 % saline control, the “Organ weight: WAT” value ([4]; 6.25 mg/kg single i.p.) was 106 % saline control and the “Organ weight: Kidney” value ([4]; 12.5 mg/kg single i.p.) was 99 % saline control. The “Organ weight: Liver” value ([4]; 12.5 mg/kg single i.p.) was 101 % saline control, the “Organ weight: Spleen” value ([4]; 12.5 mg/kg single i.p.) was 114 % saline control and the “Organ weight: WAT” value ([4]; 12.5 mg/kg single i.p.) was 111 % saline control. For the same substance, the “Organ weight: Kidney” value ([4]; 25 mg/kg single i.p.) was 109 % saline control, the “Organ weight: Liver” value ([4]; 25 mg/kg single i.p.) was 102 % saline control and the “Organ weight: Spleen” value ([4]; 25 mg/kg single i.p.) was 113 % saline control. For the same substance, the “Organ weight: WAT” value ([4]; 25 mg/kg single i.p.) was 97 % saline control, the “Organ weight: Kidney” value ([4]; 50 mg/kg single i.p.) was 99 % saline control and the “Organ weight: Liver” value ([4]; 50 mg/kg single i.p.) was 104 % saline control. For the same substance, the “Organ weight: Spleen” value ([4]; 50 mg/kg single i.p.) was 126 % saline control and the “Organ weight: WAT” value ([4]; 50 mg/kg single i.p.) was 100 % saline control.
